Measured values published in PubChem BioAssay (NCI).
Values joined by “and” are separate entries in the source; they are usually repeats but may differ in a detail not shown here. Equal entries are not always repeated.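 Five concentrations, 48 hours, 96-well plates. At the GI50, growth is halved. TGI denotes the concentration required for complete inhibition of growth.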

Key:
Experiment in all cases: DTP human tumour cell line panel, 48 h; in the data active = GI50 below about 0.43 µM; inactive = the rest
UO-31 renal = tested on: UO-31 renal
SK-OV-3 ovarian = tested on: SK-OV-3 ovarian
NCI-H522 lung = tested on: NCI-H522 lung
HCC-2998 colon = tested on: HCC-2998 colon
T-47D breast = tested on: T-47D breast
U251 CNS = tested on: U251 CNS
UACC-257 melanoma = tested on: UACC-257 melanoma
SNB-75 CNS = tested on: SNB-75 CNS
SNB-19 CNS = tested on: SNB-19 CNS
NCI-H460 lung = tested on: NCI-H460 lung
NCI-H226 lung = tested on: NCI-H226 lung
EKVX NSCLC = tested on: EKVX NSCLC
HOP-92 NSCLC = tested on: HOP-92 NSCLC
OVCAR-5 ovarian = tested on: OVCAR-5 ovarian
SF-268 CNS = tested on: SF-268 CNS
LOX IMVI melanoma = tested on: LOX IMVI melanoma
MOLT-4 leukemia = tested on: MOLT-4 leukemia
K-562 leukemia = tested on: K-562 leukemia
M14 melanoma = tested on: M14 melanoma
HT29 colon = tested on: HT29 colon
SF-539 CNS = tested on: SF-539 CNS
COLO 205 colon = tested on: COLO 205 colon
OVCAR-4 ovarian = tested on: OVCAR-4 ovarian
SF-295 CNS = tested on: SF-295 CNS
A549 NSCLC = tested on: A549 NSCLC
NCI-H23 lung = tested on: NCI-H23 lung
OVCAR-3 ovarian = tested on: OVCAR-3 ovarian
A498 renal = tested on: A498 renal
OVCAR-8 ovarian = tested on: OVCAR-8 ovarian
TK-10 renal = tested on: TK-10 renal
MDA-MB-231 breast = tested on: MDA-MB-231 breast
SW-620 colon = tested on: SW-620 colon
HCT-116 colon = tested on: HCT-116 colon
MDA-MB-435 = tested on: MDA-MB-435
SK-MEL-2 melanoma = tested on: SK-MEL-2 melanoma
SR leukemia = tested on: SR leukemia
DU-145 prostate = tested on: DU-145 prostate
SN12C renal = tested on: SN12C renal
SK-MEL-28 melanoma = tested on: SK-MEL-28 melanoma
RXF 393 renal = tested on: RXF 393 renal
CCRF-CEM leukemia = tested on: CCRF-CEM leukemia
PC-3 prostate = tested on: PC-3 prostate
ACHN renal = tested on: ACHN renal
HL-60(TB) leukemia = tested on: HL-60(TB) leukemia
786-0 renal = tested on: 786-0 renal
SK-MEL-5 melanoma = tested on: SK-MEL-5 melanoma
HCT-15 colon = tested on: HCT-15 colon
MALME-3M melanoma = tested on: MALME-3M melanoma
UACC-62 melanoma = tested on: UACC-62 melanoma
MCF7 breast = tested on: MCF7 breast
KM12 colon = tested on: KM12 colon
NCI/ADR-RES ovarian = tested on: NCI/ADR-RES ovarian
IGROV1 ovarian = tested on: IGROV1 ovarian
CAKI-1 renal = tested on: CAKI-1 renal
HOP-62 NSCLC = tested on: HOP-62 NSCLC
BT-549 breast = tested on: BT-549 breast
RPMI-8226 leukemia = tested on: RPMI-8226 leukemia
HS 578T breast = tested on: HS 578T breast

CCOC(=O)/C=C(/N=P(c1ccccc1)(c1ccccc1)c1ccccc1)C(F)(F)F
> 100000 nM: TGI (UO-31 renal) | TGI (SK-OV-3 ovarian) | TGI (NCI-H522 lung) | TGI (HCC-2998 colon) | TGI (T-47D breast)

O=CC12c3ccccc3C(c3ccccc31)C1C(=O)NC(=O)C12 (stereo unspecified)
47700 nM: TGI (MCF7 breast)
> 100000 nM: TGI (U251 CNS) | TGI (UACC-257 melanoma) | TGI (SNB-75 CNS) | TGI (SNB-19 CNS) | TGI (UO-31 renal) | TGI (NCI-H460 lung) | TGI (NCI-H226 lung) | TGI (EKVX NSCLC) | TGI (HOP-92 NSCLC) | TGI (OVCAR-5 ovarian) | TGI (SF-268 CNS) | TGI (LOX IMVI melanoma) | TGI (MOLT-4 leukemia) | TGI (K-562 leukemia) | TGI (M14 melanoma) | TGI (HT29 colon) | TGI (SF-539 CNS) | TGI (SK-OV-3 ovarian) | TGI (NCI-H522 lung) | TGI (COLO 205 colon) | TGI (OVCAR-4 ovarian) | TGI (SF-295 CNS) | TGI (A549 NSCLC) | TGI (NCI-H23 lung) | TGI (OVCAR-3 ovarian) | TGI (OVCAR-8 ovarian) | TGI (TK-10 renal) | TGI (MDA-MB-231 breast) | TGI (SW-620 colon) | TGI (HCT-116 colon) | TGI (MDA-MB-435) | TGI (SK-MEL-2 melanoma) | TGI (SR leukemia) | TGI (DU-145 prostate) | TGI (SN12C renal) | TGI (SK-MEL-28 melanoma) | TGI (RXF 393 renal) | TGI (CCRF-CEM leukemia) | TGI (PC-3 prostate) | TGI (ACHN renal) | TGI (HCC-2998 colon) | TGI (HL-60(TB) leukemia) | TGI (T-47D breast) | TGI (786-0 renal) | TGI (SK-MEL-5 melanoma) | TGI (HCT-15 colon) | TGI (MALME-3M melanoma) | TGI (UACC-62 melanoma) | TGI (KM12 colon) | TGI (NCI/ADR-RES ovarian) | TGI (IGROV1 ovarian) | TGI (CAKI-1 renal) | TGI (HOP-62 NSCLC)
48200 nM: TGI (A498 renal)

COc1ccc(-c2cc(=O)oc3ccc(Cl)cc23)cc1F
908 nM and 480 nM: TGI (HL-60(TB) leukemia)
4160 nM and 27300 nM: TGI (DU-145 prostate)
6620 nM: TGI (BT-549 breast)
1090 nM and 896 nM: TGI (COLO 205 colon)
96000 nM: TGI (NCI-H23 lung)
590 nM and 243 nM: GI50 (HCC-2998 colon)
active: GI50 (U251 CNS) 331 nM and 51.9 nM | GI50 (BT-549 breast) 303 nM and 66.5 nM | GI50 (SNB-19 CNS) 350 nM and 74.4 nM | GI50 (NCI-H460 lung) 167 nM and 49.9 nM | GI50 (LOX IMVI melanoma) 186 nM and 69.5 nM | GI50 (MOLT-4 leukemia) 310 nM and 57.1 nM | GI50 (K-562 leukemia) 43.5 nM and 40.1 nM | GI50 (M14 melanoma) 51.9 nM and 42.3 nM | GI50 (HT29 colon) 53.8 nM and 39.7 nM | GI50 (SF-539 CNS) 126 nM and 47.5 nM | GI50 (SK-OV-3 ovarian) 384 nM and 209 nM | GI50 (NCI-H522 lung) 34.9 nM and 21.8 nM | GI50 (COLO 205 colon) 146 nM and 85.3 nM | GI50 (SF-295 CNS) 84.5 nM and 36.7 nM | GI50 (A549 NSCLC) 268 nM and 105 nM | GI50 (NCI-H23 lung) 302 nM and 413 nM | GI50 (OVCAR-3 ovarian) 50.2 nM and 37.9 nM | GI50 (A498 renal) 103 nM and 47.1 nM | GI50 (RPMI-8226 leukemia) 297 nM and 106 nM | GI50 (SW-620 colon) 53 nM and 43.1 nM | GI50 (HCT-116 colon) 91.3 nM and 44.7 nM | GI50 (MDA-MB-435) 23.3 nM and 20 nM | GI50 (SK-MEL-2 melanoma) 212 nM and 38.5 nM | GI50 (SR leukemia) 42.6 nM | GI50 (DU-145 prostate) 255 nM and 261 nM | GI50 (RXF 393 renal) 141 nM and 233 nM | GI50 (CCRF-CEM leukemia) 222 nM and 59.9 nM | GI50 (PC-3 prostate) 274 nM and 79.7 nM | GI50 (HL-60(TB) leukemia) 129 nM and 33.9 nM | GI50 (786-0 renal) 366 nM and 87.7 nM | GI50 (SK-MEL-5 melanoma) 140 nM and 71.7 nM | GI50 (HCT-15 colon) 53.7 nM and 46.3 nM | GI50 (UACC-62 melanoma) 37.7 nM and 40.6 nM | GI50 (MCF7 breast) 78.5 nM and 46.8 nM | GI50 (KM12 colon) 71.2 nM and 52.4 nM | GI50 (NCI/ADR-RES ovarian) 44.2 nM and 47.8 nM | GI50 (HS 578T breast) 181 nM and 75.4 nM | GI50 (HOP-62 NSCLC) 208 nM and 188 nM
inactive: GI50 (UACC-257 melanoma) 23200 nM | GI50 (UO-31 renal) 755 nM and 1200 nM | GI50 (NCI-H226 lung) 705 nM and 3940 nM | GI50 (OVCAR-5 ovarian) 633 nM and 1260 nM | GI50 (OVCAR-4 ovarian) 1030 nM and 5590 nM | GI50 (TK-10 renal) 435 nM | GI50 (SK-MEL-28 melanoma) 1710 nM and 3050 nM | GI50 (MALME-3M melanoma) 59200 nM | GI50 (IGROV1 ovarian) 1160 nM and 683 nM
336 nM: TGI (HT29 colon)
497 nM and 345 nM: TGI (OVCAR-3 ovarian)
14200 nM: TGI (SF-295 CNS)
3630 nM and 10700 nM: TGI (HCT-116 colon)
18600 nM: TGI (MCF7 breast)
790 nM and 5170 nM: TGI (A498 renal)
30200 nM: TGI (HCC-2998 colon)
490 nM and 327 nM: GI50 (OVCAR-8 ovarian)
27300 nM: TGI (HOP-62 NSCLC)
67.5 nM and 53.1 nM: TGI (MDA-MB-435)
12600 nM: TGI (U251 CNS)
2680 nM: TGI (SK-MEL-2 melanoma)
21800 nM: TGI (NCI-H460 lung)
7940 nM: TGI (HOP-92 NSCLC)
10400 nM: TGI (HCT-15 colon)
11000 nM: TGI (KM12 colon)
68900 nM: TGI (HS 578T breast)
616 nM and 302 nM: GI50 (SF-268 CNS)
509 nM and 362 nM: GI50 (EKVX NSCLC)
> 100000 nM: TGI (UACC-257 melanoma) | TGI (SNB-19 CNS) | TGI (UO-31 renal) | TGI (NCI-H226 lung) | TGI (EKVX NSCLC) | TGI (OVCAR-5 ovarian) | TGI (SF-268 CNS) | TGI (LOX IMVI melanoma) | TGI (MOLT-4 leukemia) | TGI (M14 melanoma) | TGI (SK-OV-3 ovarian) | TGI (OVCAR-4 ovarian) | TGI (A549 NSCLC) | TGI (OVCAR-8 ovarian) | TGI (MDA-MB-231 breast) | TGI (RPMI-8226 leukemia) | TGI (SW-620 colon) | TGI (SN12C renal) | TGI (SK-MEL-28 melanoma) | TGI (CCRF-CEM leukemia) | TGI (PC-3 prostate) | TGI (ACHN renal) | TGI (786-0 renal) | TGI (MALME-3M melanoma) | TGI (UACC-62 melanoma) | TGI (IGROV1 ovarian) | TGI (CAKI-1 renal)
835 nM and 2350 nM: TGI (SK-MEL-5 melanoma)
79600 nM: TGI (TK-10 renal)
733 nM and 479 nM: TGI (SF-539 CNS)

COc1ccc2c(NCCCCCCCCNc3c4ccccc4nc4cc(OC)ccc34)c3ccccc3nc2c1
192 nM: TGI (MCF7 breast)
763 nM: TGI (TK-10 renal)
339 nM: TGI (DU-145 prostate)
332 nM: TGI (RXF 393 renal)
2320 nM: TGI (MOLT-4 leukemia)
2130 nM: TGI (HL-60(TB) leukemia)
active: GI50 (UACC-257 melanoma) 221 nM | GI50 (UO-31 renal) 48.8 nM | GI50 (NCI-H226 lung) 128 nM | GI50 (MOLT-4 leukemia) 54.6 nM | GI50 (K-562 leukemia) 52.9 nM | GI50 (NCI-H522 lung) 11 nM | GI50 (OVCAR-4 ovarian) 93.8 nM | GI50 (A498 renal) 129 nM | GI50 (TK-10 renal) 126 nM | GI50 (SK-MEL-2 melanoma) 162 nM | GI50 (DU-145 prostate) 49.8 nM | GI50 (RXF 393 renal) 117 nM | GI50 (CCRF-CEM leukemia) 25.3 nM | GI50 (HCC-2998 colon) 71.8 nM | GI50 (HL-60(TB) leukemia) 363 nM | GI50 (T-47D breast) 50.8 nM | GI50 (MCF7 breast) 27.9 nM | GI50 (HOP-62 NSCLC) 65.8 nM
300 nM: TGI (K-562 leukemia)
295 nM: TGI (T-47D breast)
223 nM: TGI (UO-31 renal)
1070 nM: TGI (UACC-257 melanoma)
254 nM: TGI (HCC-2998 colon)
358 nM: TGI (SK-MEL-2 melanoma)
961 nM: TGI (NCI-H226 lung)
446 nM: TGI (OVCAR-4 ovarian)
431 nM: TGI (CCRF-CEM leukemia)
187 nM: TGI (NCI-H522 lung)
437 nM: TGI (A498 renal)
inactive: GI50 (HOP-92 NSCLC) 1240 nM
2580 nM: TGI (HOP-92 NSCLC)
318 nM: TGI (HOP-62 NSCLC)
108 nM: TGI (IGROV1 ovarian)
